In paper PMC6364417, “Kinase inhibitor library screening identifies synergistic drug combinations effective in sensitive and resistant melanoma cells” (Journal of Experimental & Clinical Cancer Research : CR, 2019):

Columns and labels:
Experiment in all cases: Kinase inhibitor library screening, PrestoBlue cell viability, 1 or 10 μM, 72 h
501Mel cells (parental) = conditions: 501Mel Parental, 72 h
Method in brief: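 Sensitive parental cells and their resistant derivatives were exposed to library compounds for 72 h. Values represent viability as a percentage of untreated cells.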

[1] = system: 501Mel-GP cells (Dabrafenib-resistant); conditions: 501Mel GP, 72 h
[2] = system: 501Mel-XP cells (Vemurafenib-resistant); conditions: 501Mel XP, 72 h
A375 cells (parental) = conditions: A375 Parental, 72 h
[3] = system: A375-GP cells (Dabrafenib-resistant); conditions: A375 GP, 72 h
[4] = system: A375-XP cells (Vemurafenib-resistant); conditions: A375 XP, 72 h
IGR37 cells (parental) = conditions: IGR37 Parental, 72 h
[5] = system: IGR37-GP cells (Dabrafenib-resistant); conditions: IGR37 GP, 72 h
[6] = system: IGR37-XP cells (Vemurafenib-resistant); conditions: IGR37 XP, 72 h

| SMILES | cell viability (kinase inhibitor library screening) (501Mel cells (parental); 1μΜ) | cell viability (kinase inhibitor library screening) (501Mel cells (parental); 10μΜ) | cell viability (kinase inhibitor library screening) ([1]; 10μΜ) | cell viability (kinase inhibitor library screening) ([2]; 1μΜ) | cell viability (kinase inhibitor library screening) ([2]; 10μΜ) | cell viability (kinase inhibitor library screening) (A375 cells (parental); 10μΜ) | cell viability (kinase inhibitor library screening) ([3]; 10μΜ) | cell viability (kinase inhibitor library screening) ([4]; 10μΜ) | cell viability (kinase inhibitor library screening) (IGR37 cells (parental); 1μΜ) | cell viability (kinase inhibitor library screening) (IGR37 cells (parental); 10μΜ) | cell viability (kinase inhibitor library screening) ([5]; 1μΜ) | cell viability (kinase inhibitor library screening) ([5]; 10μΜ) | cell viability (kinase inhibitor library screening) ([6]; 1μΜ) | cell viability (kinase inhibitor library screening) ([6]; 10μΜ) | cell viability (kinase inhibitor library screening) ([1]; 1μΜ) | cell viability (kinase inhibitor library screening) ([4]; 1μΜ) | further results |
| --- | --- | --- | --- | --- | --- | --- | --- | --- | --- | --- | --- | --- | --- | --- | --- | --- | --- |
| CCOc1ccn(-c2ccc(F)cc2)c(=O)c1C(=O)Nc1ccc(Oc2ccnc(N)c2Cl)c(F)c1 [BMS 777607] | 88.2% | 68.4% | 53.2% | 72.2% | 37.4% | 42.4% | 45.4% | 66.5% | 97.6% | 81.6% | 87.2% | 82.2% | 91.2% | 46.6% |  |  | cell viability (kinase inhibitor library screening) (A375 cells (parental); 1μΜ): 99.9% |
| Nc1nccc(Oc2ccc(NC(=O)c3c[nH]cc(-c4ccc(F)cc4)c3=O)cc2F)c1Cl [BMS 794833] | 95.9% | 83.2% | 70.5% | 91.8% | 52.9% | 63.8% | 85.8% | 96.9% | 106.3% | 97.3% | 94.1% | 90.1% | 103.7% | 63.5% | 90.0% | 104.8% |  |
| CCCCOc1c(C(=O)c2c(F)cc(C)cc2F)c[nH]c2nncc1-2 [BMS-265246] | 92.4% | 77.7% | 52.8% | 87.1% | 32.9% | 49.0% | 40.3% | 71.7% | 91.7% | 91.8% | 90.7% | 83.4% | 85.9% | 48.1% | 94.2% | 94.5% | cell viability (kinase inhibitor library screening) (A375 cells (parental); 1μΜ): 91.4%; cell viability (kinase inhibitor library screening) ([3]; 1μΜ): 93.5% |
| Cc1c(NC(=O)OC[C@@H]2COCCN2)cn2ncnc(Nc3ccc4c(cnn4Cc4cccc(F)c4)c3)c12 [BMS-599626 (AC480)] |  |  |  |  |  |  |  |  |  |  |  |  |  |  |  |  | cell viability, 501Mel Parental, 1μΜ (501Mel cells (parental); 1μΜ, in %): 99.1; cell viability, 501Mel Parental, 10μΜ (501Mel cells (parental); 10μΜ, in %): 87.7; cell viability, 501Mel GP, 1μΜ ([1]; 1μΜ, in %): 106.6; cell viability, 501Mel GP, 10μΜ ([1]; 10μΜ, in %): 91.5; cell viability, 501Mel XP, 1μΜ ([2]; 1μΜ, in %): 93.0; cell viability, 501Mel XP, 10μΜ ([2]; 10μΜ, in %): 61.8; cell viability, A375 Parental, 1μΜ (A375 cells (parental); 1μΜ, in %): 103.3; cell viability, A375 Parental, 10μΜ (A375 cells (parental); 10μΜ, in %): 84.6; cell viability, A375 GP, 10μΜ ([3]; 10μΜ, in %): 84.2; cell viability, A375 XP, 1μΜ ([4]; 1μΜ, in %): 107.8; cell viability, A375 XP, 10μΜ ([4]; 10μΜ, in %): 91.0; cell viability, IGR37 Parental, 1μΜ (IGR37 cells (parental); 1μΜ, in %): 109.0; cell viability, IGR37 Parental, 10μΜ (IGR37 cells (parental); 10μΜ, in %): 92.5; cell viability, IGR37 GP, 10μΜ ([5]; 10μΜ): 75%; cell viability, IGR37 GP, 1μΜ ([5]; 1μΜ, in %): 95.5; cell viability, IGR37 XP, 10μΜ ([6]; 10μΜ): 48.2%; cell viability, IGR37 XP, 1μΜ ([6]; 1μΜ, in %): 96.7 |
| CC(C)c1cnn2c(NCc3ccccc3)cc(NCCCCCCN)nc12.Cl [BS-181 HCl] | 97.6% | 87.4% | 87.7% | 98.4% | 55.9% | 91.6% | 84.9% | 92.4% | 98.6% |  | 92.7% | 81.4% | 97.6% | 59.8% | 108.6% | 112.1% | cell viability (kinase inhibitor library screening) ([3]; 1μΜ): 105.9% |
| O=C(NCCCNc1nc(Nc2cccc(NC(=O)N3CCCC3)c2)ncc1I)c1cccs1 [BX-795] |  |  |  |  |  |  |  |  |  |  |  |  |  |  |  |  | Cell viability in kinase inhibitor library screening, 501Mel Parental, 1μΜ (501Mel cells (parental); 1μΜ, in %): 92.8; Cell viability in kinase inhibitor library screening, 501Mel Parental, 10μΜ (501Mel cells (parental); 10μΜ, in %): 82.7; Cell viability in kinase inhibitor library screening, 501Mel GP, 1μΜ ([1]; 1μΜ, in %): 97.1; Cell viability in kinase inhibitor library screening, 501Mel GP, 10μΜ ([1]; 10μΜ, in %): 64.9; Cell viability in kinase inhibitor library screening, 501Mel XP, 1μΜ ([2]; 1μΜ, in %): 89.4; Cell viability in kinase inhibitor library screening, 501Mel XP, 10μΜ ([2]; 10μΜ, in %): 39.9; Cell viability in kinase inhibitor library screening, A375 Parental, 10μΜ (A375 cells (parental); 10μΜ): 38.1; Cell viability in kinase inhibitor library screening, A375 Parental, 1μΜ (A375 cells (parental); 1μΜ): 87.7; Cell viability in kinase inhibitor library screening, A375 GP, 1μΜ ([3]; 1μΜ): 86.6; Cell viability in kinase inhibitor library screening, A375 GP, 10μΜ ([3]; 10μΜ): 43.6; Cell viability in kinase inhibitor library screening, A375 XP, 1μΜ ([4]; 1μΜ): 93.4; Cell viability in kinase inhibitor library screening, A375 XP, 10μΜ ([4]; 10μΜ): 48.3; Cell viability in kinase inhibitor library screening, IGR37 Parental, 1μΜ (IGR37 cells (parental); 1μΜ, in %): 97.9; Cell viability in kinase inhibitor library screening, IGR37 Parental, 10μΜ (IGR37 cells (parental); 10μΜ, in %): 56.4; Cell viability in kinase inhibitor library screening, IGR37 GP, 10μΜ ([5]; 10μΜ): 15.1%; Cell viability in kinase inhibitor library screening, IGR37 GP, 1μΜ ([5]; 1μΜ, in %): 85.8; Cell viability in kinase inhibitor library screening, IGR37 XP, 10μΜ ([6]; 10μΜ): 7.6%; Cell viability in kinase inhibitor library screening, IGR37 XP, 1μΜ ([6]; 1μΜ, in %): 93.9 |
| O=C(Nc1cccc(Nc2ncc(Br)c(NCCc3cnc[nH]3)n2)c1)N1CCCC1 [BX-912] |  |  |  |  |  |  |  |  |  |  |  |  |  |  |  |  | Cell viability in kinase inhibitor library screening, 501Mel Parental, 1μΜ (501Mel cells (parental); 1μΜ, in %): 93.6; Cell viability in kinase inhibitor library screening, 501Mel Parental, 10μΜ (501Mel cells (parental); 10μΜ, in %): 63.6; Cell viability in kinase inhibitor library screening, 501Mel GP, 1μΜ ([1]; 1μΜ, in %): 99.2; Cell viability in kinase inhibitor library screening, 501Mel GP, 10μΜ ([1]; 10μΜ, in %): 59.6; Cell viability in kinase inhibitor library screening, 501Mel XP, 1μΜ ([2]; 1μΜ, in %): 89.5; Cell viability in kinase inhibitor library screening, 501Mel XP, 10μΜ ([2]; 10μΜ, in %): 48.6; Cell viability in kinase inhibitor library screening, A375 Parental, 10μΜ (A375 cells (parental); 10μΜ): 34.9; Cell viability in kinase inhibitor library screening, A375 Parental, 1μΜ (A375 cells (parental); 1μΜ): 92.0; Cell viability in kinase inhibitor library screening, A375 GP, 1μΜ ([3]; 1μΜ): 87.6; Cell viability in kinase inhibitor library screening, A375 GP, 10μΜ ([3]; 10μΜ): 38.0; Cell viability in kinase inhibitor library screening, A375 XP, 1μΜ ([4]; 1μΜ): 88.9; Cell viability in kinase inhibitor library screening, A375 XP, 10μΜ ([4]; 10μΜ): 36.6; Cell viability in kinase inhibitor library screening, IGR37 Parental, 1μΜ (IGR37 cells (parental); 1μΜ, in %): 91.9; Cell viability in kinase inhibitor library screening, IGR37 Parental, 10μΜ (IGR37 cells (parental); 10μΜ, in %): 65.1; Cell viability in kinase inhibitor library screening, IGR37 GP, 10μΜ ([5]; 10μΜ): 55.1%; Cell viability in kinase inhibitor library screening, IGR37 XP, 10μΜ ([6]; 10μΜ): 16.7%; Cell viability in kinase inhibitor library screening, IGR37 XP, 1μΜ ([6]; 1μΜ, in %): 94.7 |
